We go through 17 molecules from ChEMBL document CHEMBL1136586, “Structure-activity relationship of linear peptide Bu-His6-DPhe7-Arg8-Trp9-Gly10-NH2 at the human melanocortin-1 and -4 receptors: DPhe7 and Trp9 substitution” (Bioorg Med Chem Lett, 2003).

Square brackets hold non-standard residues; d marks the D form. Peptide text beside a SMILES is read from it. * marks the point of attachment. Phe(3-CF3) = N[C@@H](Cc1cccc(C(F)(F)F)c1)C(=O)O; Phe(4-Br) = N[C@@H](Cc1ccc(Br)cc1)C(=O)O; Phe(4-Cl) = N[C@@H](Cc1ccc(Cl)cc1)C(=O)O; Phe(4-Me) = Cc1ccc(C[C@H](N)C(=O)O)cc1; Butyryl = CCCC(=O)*

For orientation: IC50 means the point on the concentration scale where inhibition reaches its midpoint. One may read the inhibition as the relative decrease from the control value, in per cent. Lower therefore signals little suppression. The term EC50 denotes the concentration that produces a half-maximal response. Lower therefore signals higher potency in that assay.

The target in test [1] is T1, Melanocortin receptor 4 (Homo sapiens, UniProt P32245). Briefly: Inhibitory concentration of compound was determined against hMC4R through displacement of NDP-MSH radioligand using HEK293 cells. In kind it is cell-based.
T1 sequence (P32245 whole entry): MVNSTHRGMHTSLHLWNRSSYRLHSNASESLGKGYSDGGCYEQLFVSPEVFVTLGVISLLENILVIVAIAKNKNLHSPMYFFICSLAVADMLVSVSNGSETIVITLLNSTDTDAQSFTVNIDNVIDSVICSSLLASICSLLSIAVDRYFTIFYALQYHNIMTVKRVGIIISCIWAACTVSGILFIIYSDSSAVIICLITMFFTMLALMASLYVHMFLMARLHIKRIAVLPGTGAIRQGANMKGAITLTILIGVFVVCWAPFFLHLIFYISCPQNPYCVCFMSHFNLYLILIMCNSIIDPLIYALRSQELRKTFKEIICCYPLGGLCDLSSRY
For test [2], the target named is T1, Melanocortin receptor 4. Briefly: (§1) Effective concentration against hMC4R using HEK293 cells was determined by measuring cAMP accumulation at 50 uM. The class given is functional, cell-based.
The target of test [3] is T2, Melanocyte-stimulating hormone receptor (Homo sapiens, UniProt Q01726). Briefly: Inhibitory concentration of compound was determined against hMC1R through displacement of NDP-MSH radioligand using HEK293 cells. In kind it is cell-based.
T2 sequence (Q01726 whole entry): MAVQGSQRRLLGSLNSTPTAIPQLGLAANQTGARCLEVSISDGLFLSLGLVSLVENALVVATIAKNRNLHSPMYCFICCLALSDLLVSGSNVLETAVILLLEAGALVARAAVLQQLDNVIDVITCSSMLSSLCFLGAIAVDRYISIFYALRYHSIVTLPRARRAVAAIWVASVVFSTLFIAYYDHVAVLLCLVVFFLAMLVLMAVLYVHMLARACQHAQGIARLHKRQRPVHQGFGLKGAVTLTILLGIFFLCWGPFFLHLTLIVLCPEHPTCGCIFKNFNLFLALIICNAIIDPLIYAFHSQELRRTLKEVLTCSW
The target of test [4] is T2, Melanocyte-stimulating hormone receptor. Briefly: Effective concentration against hMC1R using HEK293 cells was determined by measuring the cAMP accumulation. The class given is functional, cell-based.
In test [5] the target is T1, Melanocortin receptor 4. Briefly: (§2) Effective concentration against hMC4R using HEK293 cells was determined by measuring cAMP accumulation. The class given is functional, cell-based. A general note: Changes in cAMP serve as a functional read-out for many G protein-coupled receptors.
Test [6] has as its target T1, Melanocortin receptor 4. The description is as §1. The class given is functional, cell-based. This is another data set of the same source.
The target of test [7] is T1, Melanocortin receptor 4. The test is described as §2. The class given is functional, cell-based. The source holds these as a separate data set.

`CCCC(=O)N[C@@H](Cc1c[nH]cn1)C(=O)N[C@H](Cc1ccc2ccccc2c1)C(=O)N[C@@H](CCCN=C(N)N)C(=O)N[C@@H](Cc1c[nH]c2ccccc12)C(=O)NCC(N)=O`: the IC50 on Melanocortin receptor 4 [1] amounted to 30 nM; in test [3], 5000 nM. The same molecule displayed an inhibition on Melanocortin receptor 4 [2] of 0%. Further, the EC50 in test [4] came to 48 nM.

For the molecule `CCCC(=O)N[C@@H](Cc1c[nH]cn1)C(=O)N[C@H](Cc1ccc(Cl)c(Cl)c1)C(=O)N[C@@H](CCCN=C(N)N)C(=O)N[C@@H](Cc1c[nH]c2ccccc12)C(=O)NCC(N)=O`, the results for the IC50 (on Melanocortin receptor 4 [1]; in test [3]) were 4 nM and 250 nM, respectively. Moreover, at Melanocortin receptor 4 [2], the inhibition was determined as 0%. This molecule also registered an EC50 in test [4] of 10 nM.

Turning to `CCCC(=O)N[C@@H](Cc1c[nH]cn1)C(=O)N[C@H](Cc1cccc2ccccc12)C(=O)N[C@@H](CCCN=C(N)N)C(=O)N[C@@H](Cc1c[nH]c2ccccc12)C(=O)NCC(N)=O`, the figures for the IC50 (on Melanocortin receptor 4 [1]; in test [3]) were 350 nM and 4000 nM, respectively. Besides, the values for the EC50 (at Melanocortin receptor 4 [5]; in test [4]) were 65 nM and 30 nM, respectively.

Regarding `CCCC(=O)N[C@@H](Cc1cnc[nH]1)C(=O)N[C@H](Cc1ccccc1)C(=O)N[C@@H](CCCNC(=N)N)C(=O)N[C@@H](Cc1csc2ccccc12)C(=O)NCC(N)=O`, the IC50 at Melanocortin receptor 4 [1] was 1000 nM; in test [3], 2880 nM. In addition, the concentration giving a half-maximal response (EC50) at Melanocortin receptor 4 [5] was found to be 100 nM; in test [4], 274 nM.

As for `CCCC(=O)N[C@@H](Cc1cnc[nH]1)C(=O)N[C@@H](Cc1ccccc1)C(=O)N[C@@H](CCCNC(=N)N)C(=O)N[C@@H](Cc1c[nH]c2ccccc12)C(=O)NCC(N)=O`, the IC50 was 150 nM at Melanocortin receptor 4 [1] and 575 nM in test [3]. The concentration giving a half-maximal response (EC50) stood at 20 nM at Melanocortin receptor 4 [5] and 10 nM in test [4].

Turning to `CCCC(=O)N[C@@H](Cc1c[nH]cn1)C(=O)N[C@@H](Cc1ccc(OC)cc1)C(=O)N[C@@H](CCCN=C(N)N)C(=O)N[C@@H](Cc1c[nH]c2ccccc12)C(=O)NCC(N)=O` (Butyryl-HY(Me)RWG-NH2), the IC50 came to 120 nM on Melanocortin receptor 4 [1] and 70 nM in test [3]. The EC50 on Melanocortin receptor 4 [5] is 60 nM; in test [4], 0.4 nM.

For `CCCC(=O)N[C@@H](Cc1cnc[nH]1)C(=O)N[C@@H](Cc1ccc(O)cc1)C(=O)N[C@@H](CCCNC(=N)N)C(=O)N[C@@H](Cc1c[nH]c2ccccc12)C(=O)NCC(N)=O` (Butyryl-HYRWG-NH2), the results for the 50% effective concentration (EC50) (on Melanocortin receptor 4 [5]; in test [4]) were 1150 nM and 180 nM, respectively.

For `CCCC(=O)N[C@@H](Cc1cnc[nH]1)C(=O)N[C@@H](Cc1cccc(C(F)(F)F)c1)C(=O)N[C@@H](CCCNC(=N)N)C(=O)N[C@@H](Cc1c[nH]c2ccccc12)C(=O)NCC(N)=O` (Butyryl-H[Phe(3-CF3)]RWG-NH2), the IC50 was 300 nM on Melanocortin receptor 4 [1] and 9600 nM in test [3]. The EC50 on Melanocortin receptor 4 [5] was 45 nM; in test [4], 611 nM.

`CCCC(=O)N[C@@H](Cc1c[nH]cn1)C(=O)N[C@@H](Cc1ccc(Br)cc1)C(=O)N[C@@H](CCCN=C(N)N)C(=O)N[C@@H](Cc1c[nH]c2ccccc12)C(=O)NCC(N)=O` (Butyryl-H[Phe(4-Br)]RWG-NH2): the IC50 at Melanocortin receptor 4 [1] came out at 22 nM; in test [3], 300 nM. Moreover, the figures for the EC50 (at Melanocortin receptor 4 [5]; in test [4]) were 13 nM and 54 nM, respectively.

In the case of `CCCC(=O)N[C@@H](Cc1cnc[nH]1)C(=O)N[C@@H](Cc1ccc(Cl)cc1)C(=O)N[C@@H](CCCNC(=N)N)C(=O)N[C@@H](Cc1c[nH]c2ccccc12)C(=O)NCC(N)=O` (Butyryl-H[Phe(4-Cl)]RWG-NH2), the IC50 stood at 80 nM at Melanocortin receptor 4 [1] and 300 nM in test [3]. Besides, the EC50 (at Melanocortin receptor 4 [5]; in test [4]) was 20 nM in each case.

`CCCC(=O)N[C@@H](Cc1cnc[nH]1)C(=O)N[C@@H](Cc1ccc(C)cc1)C(=O)N[C@@H](CCCNC(=N)N)C(=O)N[C@@H](Cc1c[nH]c2ccccc12)C(=O)NCC(N)=O` (Butyryl-H[Phe(4-Me)]RWG-NH2): the results for the EC50 (at Melanocortin receptor 4 [5]; in test [4]) were 77 nM and 55 nM, respectively.

Take `CCCC(=O)N[C@@H](Cc1c[nH]cn1)C(=O)NC(Cc1ccccc1)C(=O)N[C@@H](CCCN=C(N)N)C(=O)NC(Cc1c[nH]c2ccccc12)C(=O)NCC(N)=O` (single isomer, unassigned): the EC50 (on Melanocortin receptor 4 [6]; in test [4]) was 110 nM in each case.

At Melanocortin receptor 4 [7], `CCCC(=O)N[C@@H](Cc1c[nH]cn1)C(=O)NC(Cc1ccccc1)C(=O)N[C@@H](CCCN=C(N)N)C(=O)N[C@@H](Cc1ccc(Cl)c(Cl)c1)C(=O)NCC(N)=O` (single isomer, unassigned) gave an ED50 of 194 nM. The molecule also returned an EC50 in test [4] of 1 nM.

As to `CCCC(=O)N[C@@H](Cc1c[nH]cn1)C(=O)NC(Cc1ccc(OCC)cc1)C(=O)N[C@@H](CCCN=C(N)N)C(=O)N[C@@H](Cc1c[nH]c2ccccc12)C(=O)NCC(N)=O` (single isomer, unassigned), the results for the IC50 (at Melanocortin receptor 4 [1]; in test [3]) were 100 nM and 16 nM, respectively. In addition, the results for the EC50 (at Melanocortin receptor 4 [5]; in test [4]) were 16 nM and 0.1 nM, respectively.

`CCCC(=O)N[C@@H](Cc1c[nH]cn1)C(=O)NC(Cc1cccs1)C(=O)N[C@@H](CCCN=C(N)N)C(=O)N[C@@H](Cc1c[nH]c2ccccc12)C(=O)NCC(N)=O` (single isomer, unassigned): the results for the EC50 (at Melanocortin receptor 4 [6]; in test [4]) were 8 nM and 4 nM, respectively.

Take `CCCC(=O)N[C@@H](Cc1c[nH]cn1)C(=O)NC(Cc1ccccc1)C(=O)N[C@@H](CCCN=C(N)N)C(=O)N[C@@H](Cc1ccc2ccccc2c1)C(=O)NCC(N)=O` (single isomer, unassigned): the IC50 at Melanocortin receptor 4 [1] was found to be 50 nM; in test [3], 600 nM. Moreover, the EC50 on Melanocortin receptor 4 [5] was determined as 25 nM; in test [4], 14 nM.

On to `CCCC(=O)N[C@@H](Cc1c[nH]cn1)C(=O)NC(Cc1ccccc1)C(=O)N[C@@H](CCCN=C(N)N)C(=O)N[C@@H](Cc1cccc2ccccc12)C(=O)NCC(N)=O` (single isomer, unassigned), for which the IC50 at Melanocortin receptor 4 [1] worked out at 600 nM; in test [3], 1200 nM. Further, the EC50 at Melanocortin receptor 4 [5] amounted to 140 nM; in test [4], 150 nM.
